# Tests used:
# [1] = target: T1, TIE2 (Homo sapiens, UniProt Q02763); test: Kinase inhibition, Mobility Shift Assay/IMAP, TIE2; assay type: biochemical
# T1 construct: purchased BPS 40270
# Method in brief: (§1)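 Substrate conversion (phosphorylated vs non-phosphorylated) read by mobility shift on Caliper EZ Reader II and converted to % inhibition relative to no-enzyme and DMSO controls. IC50 fitted from % inhibition versus log compound concentration.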
# [2] = target: T2, VEGFR1 (Homo sapiens, UniProt P17948); test: Kinase inhibition, Mobility Shift Assay/IMAP, VEGFR1; assay type: biochemical
# T2 construct: purchased Invitrogen PR6731B
# T2 sequence (P17948 27-1338): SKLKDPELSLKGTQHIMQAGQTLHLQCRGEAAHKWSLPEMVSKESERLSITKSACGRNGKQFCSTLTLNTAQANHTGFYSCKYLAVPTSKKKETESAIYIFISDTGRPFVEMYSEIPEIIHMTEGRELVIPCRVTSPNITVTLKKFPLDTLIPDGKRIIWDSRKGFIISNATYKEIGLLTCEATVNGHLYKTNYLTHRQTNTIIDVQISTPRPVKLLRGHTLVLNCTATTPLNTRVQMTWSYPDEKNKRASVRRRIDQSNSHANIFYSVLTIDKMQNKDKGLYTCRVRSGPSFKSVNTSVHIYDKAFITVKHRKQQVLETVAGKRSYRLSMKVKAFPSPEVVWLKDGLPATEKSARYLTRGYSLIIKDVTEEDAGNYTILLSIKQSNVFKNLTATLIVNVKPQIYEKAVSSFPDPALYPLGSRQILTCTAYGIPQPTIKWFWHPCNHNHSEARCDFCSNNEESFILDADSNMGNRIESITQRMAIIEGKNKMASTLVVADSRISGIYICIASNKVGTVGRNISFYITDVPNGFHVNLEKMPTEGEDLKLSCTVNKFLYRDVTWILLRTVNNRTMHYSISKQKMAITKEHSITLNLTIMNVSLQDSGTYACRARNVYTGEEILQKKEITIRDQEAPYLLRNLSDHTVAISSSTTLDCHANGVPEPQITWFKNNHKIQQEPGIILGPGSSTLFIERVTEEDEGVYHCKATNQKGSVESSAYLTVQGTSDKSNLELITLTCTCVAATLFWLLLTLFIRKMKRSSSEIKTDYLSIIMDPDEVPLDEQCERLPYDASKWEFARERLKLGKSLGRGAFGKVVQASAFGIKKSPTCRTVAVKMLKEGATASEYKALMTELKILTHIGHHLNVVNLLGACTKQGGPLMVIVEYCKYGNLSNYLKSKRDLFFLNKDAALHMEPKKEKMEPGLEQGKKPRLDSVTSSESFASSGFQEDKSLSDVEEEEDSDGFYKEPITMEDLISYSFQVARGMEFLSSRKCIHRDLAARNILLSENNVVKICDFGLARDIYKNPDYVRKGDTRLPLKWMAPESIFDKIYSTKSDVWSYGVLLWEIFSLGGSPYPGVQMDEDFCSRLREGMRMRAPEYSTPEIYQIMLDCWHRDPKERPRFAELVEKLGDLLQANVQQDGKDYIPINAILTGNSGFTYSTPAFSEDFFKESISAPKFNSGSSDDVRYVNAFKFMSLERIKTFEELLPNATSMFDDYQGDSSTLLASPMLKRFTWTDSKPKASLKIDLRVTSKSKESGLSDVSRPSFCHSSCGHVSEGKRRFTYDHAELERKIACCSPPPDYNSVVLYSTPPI
# Method in brief: as §1
# [3] = target: T3, VEGFR3 (Homo sapiens, UniProt P35916); test: Kinase inhibition, Mobility Shift Assay/IMAP, VEGFR3; assay type: biochemical
# T3 construct: purchased Invitrogen PV4129
# T3 sequence (P35916 25-1363): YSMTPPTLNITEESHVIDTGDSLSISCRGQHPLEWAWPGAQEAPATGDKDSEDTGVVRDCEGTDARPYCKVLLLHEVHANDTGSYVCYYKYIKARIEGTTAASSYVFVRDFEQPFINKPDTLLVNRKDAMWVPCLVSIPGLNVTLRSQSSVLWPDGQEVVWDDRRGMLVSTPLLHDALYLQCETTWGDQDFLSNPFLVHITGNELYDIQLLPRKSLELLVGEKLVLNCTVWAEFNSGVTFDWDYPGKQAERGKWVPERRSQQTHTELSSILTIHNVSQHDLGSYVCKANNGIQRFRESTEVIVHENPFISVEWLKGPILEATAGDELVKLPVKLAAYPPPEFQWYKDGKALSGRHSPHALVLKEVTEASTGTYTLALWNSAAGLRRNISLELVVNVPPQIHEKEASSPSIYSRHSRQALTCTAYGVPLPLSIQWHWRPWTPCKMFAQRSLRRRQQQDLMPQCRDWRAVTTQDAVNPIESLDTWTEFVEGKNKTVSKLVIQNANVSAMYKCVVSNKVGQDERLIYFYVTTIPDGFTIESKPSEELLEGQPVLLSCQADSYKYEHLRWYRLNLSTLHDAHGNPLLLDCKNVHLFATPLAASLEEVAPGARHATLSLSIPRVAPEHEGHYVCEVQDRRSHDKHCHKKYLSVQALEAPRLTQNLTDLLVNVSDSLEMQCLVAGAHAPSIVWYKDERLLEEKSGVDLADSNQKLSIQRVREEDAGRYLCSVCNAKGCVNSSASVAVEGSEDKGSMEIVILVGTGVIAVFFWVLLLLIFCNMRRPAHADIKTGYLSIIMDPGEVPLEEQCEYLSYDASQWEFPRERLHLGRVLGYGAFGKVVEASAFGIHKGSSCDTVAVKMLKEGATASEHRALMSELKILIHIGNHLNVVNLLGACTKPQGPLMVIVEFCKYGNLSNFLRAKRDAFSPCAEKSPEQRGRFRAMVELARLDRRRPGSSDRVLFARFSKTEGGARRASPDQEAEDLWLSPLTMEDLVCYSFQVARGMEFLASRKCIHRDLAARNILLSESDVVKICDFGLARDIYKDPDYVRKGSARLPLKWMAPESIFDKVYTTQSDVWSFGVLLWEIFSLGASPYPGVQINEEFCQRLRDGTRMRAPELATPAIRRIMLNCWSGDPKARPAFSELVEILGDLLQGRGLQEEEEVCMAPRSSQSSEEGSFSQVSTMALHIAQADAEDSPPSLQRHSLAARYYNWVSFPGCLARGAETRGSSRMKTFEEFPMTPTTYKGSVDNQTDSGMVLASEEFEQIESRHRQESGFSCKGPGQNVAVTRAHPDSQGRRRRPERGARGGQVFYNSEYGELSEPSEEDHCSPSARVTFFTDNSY
# Method in brief: as §1
# [4] = target: VEGFR2 (Homo sapiens, UniProt P35968); test: Inhibition of VEGF-induced VEGFR2 autophosphorylation (pVEGFR2) in HUVEC cells, ELISA; assay type: cell-based; parameters: endogenous in cells; host or cells: HUVEC; conditions: 50 ng/mL human VEGF, compound 1 h
# VEGFR2, sequence (P35968 20-1356): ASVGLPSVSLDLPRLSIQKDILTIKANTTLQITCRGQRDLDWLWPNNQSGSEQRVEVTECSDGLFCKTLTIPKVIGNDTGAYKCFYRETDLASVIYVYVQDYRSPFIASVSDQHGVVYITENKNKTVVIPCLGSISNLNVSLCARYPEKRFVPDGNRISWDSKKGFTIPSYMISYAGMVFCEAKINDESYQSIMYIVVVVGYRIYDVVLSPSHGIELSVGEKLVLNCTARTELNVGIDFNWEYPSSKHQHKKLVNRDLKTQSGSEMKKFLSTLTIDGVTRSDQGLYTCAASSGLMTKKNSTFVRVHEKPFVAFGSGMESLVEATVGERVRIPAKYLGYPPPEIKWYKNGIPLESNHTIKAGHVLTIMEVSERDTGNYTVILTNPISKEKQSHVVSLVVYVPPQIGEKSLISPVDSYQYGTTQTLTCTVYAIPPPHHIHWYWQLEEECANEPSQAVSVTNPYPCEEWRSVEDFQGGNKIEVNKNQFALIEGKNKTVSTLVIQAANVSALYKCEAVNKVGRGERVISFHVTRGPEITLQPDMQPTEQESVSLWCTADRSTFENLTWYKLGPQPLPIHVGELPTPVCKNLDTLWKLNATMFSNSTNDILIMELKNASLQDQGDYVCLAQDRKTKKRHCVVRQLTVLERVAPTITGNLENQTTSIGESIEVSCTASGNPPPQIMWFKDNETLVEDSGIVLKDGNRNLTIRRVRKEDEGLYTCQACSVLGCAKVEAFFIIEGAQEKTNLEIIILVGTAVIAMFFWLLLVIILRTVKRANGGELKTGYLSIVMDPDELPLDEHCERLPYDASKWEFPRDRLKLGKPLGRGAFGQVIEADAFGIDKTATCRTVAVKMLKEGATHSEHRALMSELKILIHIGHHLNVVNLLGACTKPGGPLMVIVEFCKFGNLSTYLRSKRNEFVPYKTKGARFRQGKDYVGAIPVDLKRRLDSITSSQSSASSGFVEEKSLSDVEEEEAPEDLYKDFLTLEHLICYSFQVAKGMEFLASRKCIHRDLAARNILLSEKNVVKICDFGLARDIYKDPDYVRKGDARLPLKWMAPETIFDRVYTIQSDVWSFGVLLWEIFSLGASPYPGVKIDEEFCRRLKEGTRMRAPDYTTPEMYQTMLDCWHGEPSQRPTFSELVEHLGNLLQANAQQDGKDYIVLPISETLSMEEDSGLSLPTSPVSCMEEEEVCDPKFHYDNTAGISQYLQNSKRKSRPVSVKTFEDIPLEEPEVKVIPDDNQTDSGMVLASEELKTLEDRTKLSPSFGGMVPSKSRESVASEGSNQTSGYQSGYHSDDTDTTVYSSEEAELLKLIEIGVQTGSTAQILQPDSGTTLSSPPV
# Method in brief: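 HUVEC seeded overnight, pretreated 1 h at 37 °C with compound (8-point 3-fold dilution series), then stimulated 5 min with human VEGF at 50 ng/mL final. Lysate pVEGFR2 quantified by sandwich ELISA with TMB read-out at 450 nm; IC50 from 4-parameter logistic fit of % inhibition.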
# [5] = Solubility test in buffer, LC-MS; assay type: physicochemical; conditions: aqueous buffer, thermodynamic from solid, room temperature, shaking 8 h, pH not given (method: pH 2.0, 6.5, 7.4)
# Method in brief: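 Compound at 2 mg/mL in buffers of pH 2.0, 6.5 and 7.4, sonicated, shaken 8 h at room temperature, then centrifuged at 13,000 rpm. Supernatant quantified by LC-MS against a 3–5 point calibration.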
# T1 sequence (Q02763 23-1124): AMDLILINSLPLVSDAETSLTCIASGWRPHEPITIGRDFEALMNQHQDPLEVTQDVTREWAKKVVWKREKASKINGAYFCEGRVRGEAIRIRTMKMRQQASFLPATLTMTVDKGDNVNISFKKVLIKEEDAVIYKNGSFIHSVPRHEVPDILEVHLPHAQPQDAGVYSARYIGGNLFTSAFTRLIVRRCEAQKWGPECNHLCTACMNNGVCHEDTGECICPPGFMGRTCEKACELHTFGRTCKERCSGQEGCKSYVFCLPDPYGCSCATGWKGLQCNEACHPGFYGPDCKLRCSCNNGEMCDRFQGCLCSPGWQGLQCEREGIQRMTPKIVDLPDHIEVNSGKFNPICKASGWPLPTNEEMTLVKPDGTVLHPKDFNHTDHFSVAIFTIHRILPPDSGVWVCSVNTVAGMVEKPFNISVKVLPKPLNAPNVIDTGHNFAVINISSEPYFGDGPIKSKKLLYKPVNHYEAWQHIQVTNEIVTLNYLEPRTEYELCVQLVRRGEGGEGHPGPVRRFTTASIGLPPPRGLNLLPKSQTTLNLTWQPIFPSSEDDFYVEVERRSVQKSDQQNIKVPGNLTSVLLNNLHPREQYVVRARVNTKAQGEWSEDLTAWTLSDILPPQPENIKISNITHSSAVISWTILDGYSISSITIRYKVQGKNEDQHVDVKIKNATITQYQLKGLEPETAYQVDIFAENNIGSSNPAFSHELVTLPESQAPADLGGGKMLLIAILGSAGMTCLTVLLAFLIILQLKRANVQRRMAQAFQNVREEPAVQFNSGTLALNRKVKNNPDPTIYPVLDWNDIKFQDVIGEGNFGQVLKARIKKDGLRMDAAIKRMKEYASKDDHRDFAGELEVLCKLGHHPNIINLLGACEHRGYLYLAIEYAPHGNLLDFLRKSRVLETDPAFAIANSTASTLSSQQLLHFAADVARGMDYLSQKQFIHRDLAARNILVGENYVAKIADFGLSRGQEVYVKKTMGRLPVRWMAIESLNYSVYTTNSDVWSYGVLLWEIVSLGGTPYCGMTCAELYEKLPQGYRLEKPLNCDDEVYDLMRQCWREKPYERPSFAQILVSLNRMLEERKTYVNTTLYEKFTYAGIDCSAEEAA
IC50 [1] [nM],IC50 [2] [nM],IC50 [3] [nM],IC50 [4] [nM],solubility at 8 h [5] [µg/mL],SMILES
1420,1.11,0.8,30,–,"NC(=O)c1c(OCc2cc(C(=O)NC3CC3)ccc2F)nsc1NC(=O)NCCCCN1CCCC1 [Compound T087, 3-[[5-(cyclopropylcarbamoyl)-2-fluoro-phenyl]methoxy]-5-(4-pyrrolidin-1-ylbutylcarbamoylamino)isothiazole-4-carboxamide]"
–,5.87,6.72,87,–,"NC(=O)c1c(OCc2cc3c(cc2F)CCO3)nsc1NC(=O)NCCCCN1CC[C@@H](O)C1 [Compound T091, 3-[(5-fluoro-2,3-dihydrobenzofuran-6-yl)methoxy]-5-[4-[(3R)-3-hydroxypyrrolidin-1-yl]butylcarbamoylamino] isothiazole-4-carboxamide]"
163,–,–,103,–,"CN1CCN(CCCNC(=O)Nc2snc(OCc3cc4c(cc3F)CCO4)c2C(N)=O)CC1 [Compound T101, 3-[(5-fluoro-2,3-dihydrobenzofuran-6-yl)methoxy]-5-[3-(4-methylpiperazin-1-yl)propylcarbamoylamino] isothiazole-4-carboxamide]"
2360,1.21,4.8,61,1090,"NC(=O)c1c(OCc2cc(C(=O)NC3CC3)ccc2F)nsc1NC(=O)NCCCN1CC[C@H](F)C1 [Compound T116, 3-[[5-(cyclopropylcarbamoyl)-2-fluoro-phenyl]methoxy]-5-[3-[(3S)-3-fluoropyrrolidin-1-yl]propylcarbamoylamino]isothiazole-4-carboxamide]"
–,–,–,48.2,2050,"CN1CCN(CCCNC(=O)Nc2snc(OCc3cc(C(=O)NC4CC4)ccc3F)c2C(N)=O)CC1 [Compound T118, 3-[[5-(cyclopropylcarbamoyl)-2-fluoro-phenyl]methoxy]-5-[3-(4-methylpiperazin-1-yl)propylcarbamoylamino]isothiazole-4-carboxamide]"
973,–,–,0.78,–,"NC(=O)c1c(OCc2cc(C(=O)NC3CC3)ccc2Cl)nsc1NC(=O)NCCCCN1CCCC1 [Compound T123, 3-[[2-chloro-5-(cyclopropylcarbamoyl)phenyl]methoxy]-5-(4-pyrrolidin-1-ylbutylcarbamoylamino)isothiazole-4-carboxamide]"
2890,–,–,16.2,1950,"NC(=O)c1c(OCc2c(F)ccc(C(=O)NC3CC3)c2F)nsc1NC(=O)NCCCCN1CCCC1 [Compound T124, 3-[[3-(cyclopropylcarbamoyl)-2,6-difluoro-phenyl]methoxy]-5-(4-pyrrolidin-1-ylbutylcarbamoylamino)isothiazole-4-carboxamide]"

# Reference: patent US20260217698A1 (BEYANG THERAPEUTICS CO., LTD., priority 2022, published 2026)
